In publication PMC9196127, “Novel STAT3 Inhibitors Targeting STAT3 Dimerization by Binding to the STAT3 SH2 Domain” (Frontiers in Pharmacology, 2022):

Target: STAT3 (Homo sapiens, UniProt P40763)
Assay: Fluorescence polarization (FP) competition assay with 5-FLU-GpYLPQTV-NH2
Format: binding
Design: purchased Abcam ab43618
Conditions: FP assay
Experimental: The FP assay was conducted as described in [Zhao et al. (2010]). The fluorochrome-labeled phosphopeptide, 5-FLU-G (pY)LPQTV-NH2, was synthesized by ProImmune (London, United Kingdom) with over 95% purity as a probe. The recombinant human STAT3 protein was purchased from Abcam (ab43618). To obtain an inhibitory effect, drugs (0–1,000 μM) and 150 nM human STAT3 were incubated at 37°C in an assay buffer (50 mm NaCl, 10 mm HEPES, 1 mm EDTA, and 0.01% Triton X-100) for 1 h prior to co-incubation with 10 nM of the fluorochrome-labeled peptide at RT for 30 min. The plate was sealed under nitrogen and left at RT for 72 h. The fluorescence polarization was then analyzed by the BioTek Synergy™ Neo2 Multi-Mode Microplate Reader (BioTek Instruments, Winooski, VT, United States). Binding curves were fit to a log-logistic function using the R package drc. Ki was determined from the resulting IC50 using the Cheng–Prusoff equation and the Kd for fluorochrome-labeled peptide binding to STAT3, Ki = IC50/(([L])/Kd) +1. […]
FIGURE 4 Fluorescence polarization (FP) assays identified 323s as direct STAT3 SH2 domain binders. (A) Fluorescence polarization (FP) analysis of the binding of 10 nM GpYLTQTV-NH2and 150 nM human STAT3 protein with increasing concentration of drugs. […]

STAT3, sequence (P40763 whole entry): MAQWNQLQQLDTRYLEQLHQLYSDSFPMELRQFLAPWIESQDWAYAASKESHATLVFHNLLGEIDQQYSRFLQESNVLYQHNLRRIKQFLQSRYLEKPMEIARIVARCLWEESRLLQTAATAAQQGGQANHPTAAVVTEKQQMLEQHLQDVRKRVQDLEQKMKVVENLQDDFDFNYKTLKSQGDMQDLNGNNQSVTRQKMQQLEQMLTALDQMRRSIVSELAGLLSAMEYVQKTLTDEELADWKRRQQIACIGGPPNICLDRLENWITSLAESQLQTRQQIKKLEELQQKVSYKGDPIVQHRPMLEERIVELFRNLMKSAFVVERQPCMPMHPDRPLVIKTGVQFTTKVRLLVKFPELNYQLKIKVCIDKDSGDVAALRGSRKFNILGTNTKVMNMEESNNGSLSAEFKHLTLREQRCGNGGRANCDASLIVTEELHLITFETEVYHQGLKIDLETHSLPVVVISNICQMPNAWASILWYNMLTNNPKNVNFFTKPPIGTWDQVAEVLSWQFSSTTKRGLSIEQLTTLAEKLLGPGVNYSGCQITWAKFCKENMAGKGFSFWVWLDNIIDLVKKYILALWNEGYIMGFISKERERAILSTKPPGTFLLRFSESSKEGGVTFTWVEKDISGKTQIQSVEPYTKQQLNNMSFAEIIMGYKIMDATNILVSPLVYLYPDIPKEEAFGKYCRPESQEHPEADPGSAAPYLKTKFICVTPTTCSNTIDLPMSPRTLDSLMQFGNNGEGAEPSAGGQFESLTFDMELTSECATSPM

Row | Structure (SMILES) | potency to disrupt STAT3/GpYLPQTV relative to S3I-201
1 | C[C@@H]1CCC(c2cc3c4c(cncc4c2)[C@H](C)C3)=C1C=O [323–1, (15R,2R)-delavatine A] | around five-fold more potently than S3I-201
2 | C[C@@H]1CCC(c2cc3c4c(cncc4c2)[C@@H](C)C3)=C1C=O [323–2, (15S,2R)-delavatine A] | around five-fold more potently than S3I-201
